Results reported in ChEMBL document CHEMBL1152904, “Synthesis and characterization of a BODIPY-labeled derivative of Soraphen A that binds to acetyl-CoA carboxylase” (Bioorg Med Chem Lett, 2009).

Target: Acetyl-CoA carboxylase 2 (Homo sapiens, UniProt O00763)
Assay: Binding affinity to human His-tagged acetyl-CoA-carboxylase biotin carboxylase domain
Conditions: read-out: Kd(app)

Chain of Acetyl-CoA carboxylase 2 (O00763 whole entry, the tested form may be a part): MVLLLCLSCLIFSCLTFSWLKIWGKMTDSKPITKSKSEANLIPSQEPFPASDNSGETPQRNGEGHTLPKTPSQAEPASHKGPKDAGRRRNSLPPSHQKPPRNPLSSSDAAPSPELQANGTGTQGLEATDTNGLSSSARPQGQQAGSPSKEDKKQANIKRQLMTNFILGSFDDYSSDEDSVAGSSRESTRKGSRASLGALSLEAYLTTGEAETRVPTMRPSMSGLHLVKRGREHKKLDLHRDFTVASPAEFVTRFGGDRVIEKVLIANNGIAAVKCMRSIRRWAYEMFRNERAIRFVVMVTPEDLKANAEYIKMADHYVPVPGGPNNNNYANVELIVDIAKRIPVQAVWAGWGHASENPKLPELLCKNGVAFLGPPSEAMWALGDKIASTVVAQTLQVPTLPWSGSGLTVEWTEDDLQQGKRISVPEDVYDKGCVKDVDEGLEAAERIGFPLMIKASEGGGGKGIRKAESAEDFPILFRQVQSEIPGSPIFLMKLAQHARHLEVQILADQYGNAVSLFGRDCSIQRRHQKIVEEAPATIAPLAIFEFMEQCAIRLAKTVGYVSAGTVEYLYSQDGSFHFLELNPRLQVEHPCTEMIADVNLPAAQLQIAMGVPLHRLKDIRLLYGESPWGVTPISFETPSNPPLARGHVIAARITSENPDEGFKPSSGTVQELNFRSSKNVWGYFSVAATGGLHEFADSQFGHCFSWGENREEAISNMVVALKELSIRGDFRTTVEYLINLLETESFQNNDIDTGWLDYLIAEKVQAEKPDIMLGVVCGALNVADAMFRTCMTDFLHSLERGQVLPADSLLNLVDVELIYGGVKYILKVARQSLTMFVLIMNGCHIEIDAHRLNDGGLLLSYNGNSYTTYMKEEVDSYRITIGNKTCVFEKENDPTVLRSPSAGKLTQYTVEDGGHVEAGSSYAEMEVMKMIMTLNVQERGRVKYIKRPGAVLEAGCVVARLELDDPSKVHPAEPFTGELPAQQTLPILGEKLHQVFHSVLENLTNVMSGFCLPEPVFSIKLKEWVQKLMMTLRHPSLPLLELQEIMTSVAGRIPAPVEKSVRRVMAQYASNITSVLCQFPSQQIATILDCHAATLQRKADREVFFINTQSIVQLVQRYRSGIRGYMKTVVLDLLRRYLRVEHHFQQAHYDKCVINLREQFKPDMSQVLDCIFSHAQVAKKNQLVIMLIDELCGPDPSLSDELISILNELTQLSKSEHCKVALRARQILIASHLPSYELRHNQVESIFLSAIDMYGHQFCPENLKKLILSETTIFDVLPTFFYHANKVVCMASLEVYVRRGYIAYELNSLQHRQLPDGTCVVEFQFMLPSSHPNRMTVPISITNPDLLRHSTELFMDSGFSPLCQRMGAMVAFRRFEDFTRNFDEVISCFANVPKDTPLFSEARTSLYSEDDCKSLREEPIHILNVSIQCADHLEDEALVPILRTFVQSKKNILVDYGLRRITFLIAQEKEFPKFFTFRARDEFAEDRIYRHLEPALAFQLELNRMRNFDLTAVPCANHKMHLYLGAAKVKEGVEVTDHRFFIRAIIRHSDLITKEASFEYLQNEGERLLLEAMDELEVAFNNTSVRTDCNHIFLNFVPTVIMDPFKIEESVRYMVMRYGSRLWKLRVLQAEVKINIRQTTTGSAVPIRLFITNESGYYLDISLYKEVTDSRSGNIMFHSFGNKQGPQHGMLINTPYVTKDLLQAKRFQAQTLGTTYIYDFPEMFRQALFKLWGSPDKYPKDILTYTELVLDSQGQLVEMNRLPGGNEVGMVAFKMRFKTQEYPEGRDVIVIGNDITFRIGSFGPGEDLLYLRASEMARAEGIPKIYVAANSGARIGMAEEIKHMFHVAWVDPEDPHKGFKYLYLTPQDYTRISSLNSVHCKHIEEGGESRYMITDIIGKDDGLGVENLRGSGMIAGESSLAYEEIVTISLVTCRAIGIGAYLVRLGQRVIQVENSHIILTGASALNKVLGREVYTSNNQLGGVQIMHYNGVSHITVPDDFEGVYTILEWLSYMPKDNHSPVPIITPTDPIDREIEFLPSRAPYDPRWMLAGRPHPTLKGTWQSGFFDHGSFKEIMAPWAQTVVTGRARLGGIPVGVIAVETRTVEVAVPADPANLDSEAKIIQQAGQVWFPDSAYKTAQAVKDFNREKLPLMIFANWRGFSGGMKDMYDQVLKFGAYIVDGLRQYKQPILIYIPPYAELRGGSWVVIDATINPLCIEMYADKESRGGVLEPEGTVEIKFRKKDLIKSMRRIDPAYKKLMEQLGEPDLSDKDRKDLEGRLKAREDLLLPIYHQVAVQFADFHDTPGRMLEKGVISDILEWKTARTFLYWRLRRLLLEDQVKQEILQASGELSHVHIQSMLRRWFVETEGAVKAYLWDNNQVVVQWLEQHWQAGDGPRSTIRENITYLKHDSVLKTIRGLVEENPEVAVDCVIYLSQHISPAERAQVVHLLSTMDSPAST

A Kd of 3 nM was found for CO[C@H]1CCCC[C@@H](c2ccccc2)OC(=O)[C@@H](C)[C@@]2(O)O[C@H]([C@@H](C)[C@H](O)[C@H]2OC)[C@@H](C)/C=C/[C@H]1OC(=O)CCC1=[N+]2C(=Cc3c(C)cc(C)n3[B-]2(F)F)C=C1 in this work.
